Square brackets hold non-standard residues; d marks the D form. Ends that are not written are not given here.
What was measured:
human dermal fibroblasts = test: UVA-induced intracellular amplification of ROS (dihydrorhodamine 123, flow cytometry); assay type: cell-based; settings: for effect on UVA-induced intracellular amplification of ROS compared with vitamin C (ascorbate): peptide 10^-8M vs vitamin C 10^-2M, FIG. 2; for effect on UVA-induced intracellular amplification of ROS ("oxidative stress"): peptide 10^-8 M, 24 h pre-incubation, UVA 10 J/cm^2, human dermal fibroblasts, FIG. 1, p<0.001
Method: The modulating effect of the tripeptides Lys-Pro-Val (KPV), Lys-D-Pro-Thr (KPT) and Thyrotropin Releasing Hormones (TRH, Protirelin, Thyoliberin, pGlu-His-Pro) was examined on human dermal fibroblasts that were seeded into 3.5 cm^2 tissue culture dishes in a density of 150,000 per dish in […] medium. Two days after seeding the cells, the medium supplemented with 10% foetal calf serum, 1% L-glutamine and 1% penicillin/streptomycin was exchanged with serum-free RPMI medium and pre-incubated for 24 hours with KPV, […] Subsequently, the cells were exposed to a physiological dose of UVA radiation (10 J/cm^2). Immediately after radiation, the cells were incubated with 5 μM dihydrorhodamine 123 plus 5 mM glucose in phosphate buffer (PBS) for 30 minutes. Subsequently, the cells were trypsinized, resuspended in PBS with 5 mM glucose and analyzed by means of flow cytometry (FACS, FACSCalibur with 488 nm argon laser). The above dihydrorhodamine probe is oxidized in the presence of intracellular ROS into green fluorescent […] and, thus, can be measured fluorometrically. A total of 10×10^3 cells per probe were analyzed and evaluated using CELL-QUEST software. The median of the FL-1 channel was used as parameter for the intracellular ROS amount, since it represents the maximum number of cells with the highest fluorescence. Duplicate and triplicate analyses were carried out and all assays were reproduced three times in independent experiments.

B16.F1 melanoma cells = test: Extracellular melanin accumulation (in situ melanin assay, optical density 405 nm); assay type: cell-based, mouse; settings: 72 hrs; for melanotropic effect (extracellular melanin accumulation): peptides at 10^-6, 10^-8 and 10^-10 M, FIG. 3
Description: It is also preferred that the compounds of the invention have no or merely a negligible melanotropic effect. “Melanotropic effect” means that the compound induces the extracellular melanin accumulation in a cell assay in accordance with the method described in the appended example 2 and/or in accordance with the method described in Siegrist and Eberle (Anal. Biochem. 1986; 159; 191-197), title “In situ melanin assay for MSH using mouse B16 melanoma cells in culture”. “No or negligible” means that the mean melanin accumulation which is induced by the compounds of the invention exceeds the mean melanin accumulation which is induced by at least one of the two compounds as exemplified in Example 2 by not more than about 40%, 30%, 20%, 15%, 10%, 5%, 2.5%, 2% or 1%, preferably under conditions which equate to or are identical with those set out in Example 2. The skilled person is able to justify which assay conditions/assays equate with the assay/conditions exemplified in the appended examples. The melanin accumulation evaluated in Example 2 is depicted in FIG. 3. The effect of the compounds of the invention on extracellular melanin accumulation is thus determinable by the methods disclosed herein.
To exclude a potential melanotropic effect of KPT and KPV, 2500 B16.F1 melanoma cells were seeded out on 96-well tissue culture plates in quintuplicate at a density of 2500 cells/well in regular culture medium. On the next day routine medium was changed to medium containing the above peptides at 10^−6, 10^−8 and 10^−10 M vs. medium containing the superpotent MSH analogue NDP-α-MSH (10^−8 M). The latter served as positive control while cells without any other stimulus served as negative control. Cells were then cultured for 72 hrs followed by photometric measurement of the optical density (wavelength 405 nm) of each well. This procedure measures the amount of extracellular melanin produced by the cells according to the well-established and described methodology by Siegrist & Eberle, Anal. Biochem. 1986; 159: 191-197.

Row | Compound | antioxidative protective effects in human dermal fibroblasts (summary statement) (human dermal fibroblasts) | effect on UVA-induced intracellular amplification of ROS compared with vitamin C (ascorbate) (human dermal fibroblasts) | effect on UVA-induced intracellular amplification of ROS ("oxidative stress") (human dermal fibroblasts) | melanotropic effect (extracellular melanin accumulation) (B16.F1 melanoma cells) | melanotropic effect (extracellular melanin accumulation), positive control (B16.F1 melanoma cells; 10^-8 M)
1 | NC(=O)[C@@H]1CCCN1C(=O)[C@H](Cc1c[nH]cn1)NC(=O)[C@@H]1CCC(=O)N1 [TRH, L-Pyroglutamyl-L-histidyl-L-prolinamid] | show antioxidative protective effects | comparable with that of vitamin C | suppressed UVA-induced intracellular amplification of ROS | – | –
2 | Lys-Pro-Val [KPV] | show antioxidative protective effects | – | suppressed UVA-induced intracellular amplification of ROS | did not have any melanotropic effect | –
3 | Lys-[dP]-Thr [KPT] | show antioxidative protective effects | comparable with that of vitamin C | suppressed UVA-induced intracellular amplification of ROS | did not have any melanotropic effect | –
4 | NDP-α-MSH [reference compound] | – | – | – | – | p<0.001 vs. control
